#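 Five concentrations, 48 hours, 96-well plates. Here, GI50 denotes the concentration required for 50% inhibition of growth.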 Activity calls are given as the source filed them. Cut-off read from the data, not from the text of the source: active = GI50 up to about 1.1 µM and inactive = higher.
# Legend:
# Assay in all cases: inhibition of tumour cell growth, NCI panel, 48 h
# SNB-19 = test system: SNB-19
# LOX IMVI = test system: LOX IMVI
# SN12C = test system: SN12C
# NCI-H522 = test system: NCI-H522
# Malme-3M = test system: Malme-3M
# OVCAR-3 = test system: OVCAR-3
# SF-295 = test system: SF-295
# CAKI-1 = test system: CAKI-1
# SK-MEL-28 = test system: SK-MEL-28
# SK-MEL-2 = test system: SK-MEL-2
# M14 = test system: M14
# T47D = test system: T47D
# OVCAR-8 = test system: OVCAR-8
# NCI-H23 = test system: NCI-H23
# NCI/ADR-RES = test system: NCI/ADR-RES
# PC-3 = test system: PC-3
# MDA-MB-435 = test system: MDA-MB-435
# UO-31 = test system: UO-31
# HCT-15 = test system: HCT-15
# Hs-578T = test system: Hs-578T
# HOP-62 = test system: HOP-62
# TK-10 = test system: TK-10
# A498 = test system: A498
# CCRF-CEM = test system: CCRF-CEM
# MCF7 = test system: MCF7
# HCC 2998 = test system: HCC 2998
# SR = test system: SR
# U-251 = test system: U-251
# UACC-62 = test system: UACC-62
# NCI-H226 = test system: NCI-H226
# 786-0 = test system: 786-0
# HL-60 = test system: HL-60
# HT-29 = test system: HT-29
# ACHN = test system: ACHN
# UACC-257 = test system: UACC-257
# SW-620 = test system: SW-620
# MDA-MB-231 = test system: MDA-MB-231
# DU-145 = test system: DU-145
# K562 = test system: K562
# RXF 393 = test system: RXF 393
# IGROV-1 = test system: IGROV-1
# NCI-H460 = test system: NCI-H460
# SF-268 = test system: SF-268
# BT-549 = test system: BT-549
# RPMI-8226 = test system: RPMI-8226
# A549 = test system: A549
# KM12 = test system: KM12
# HCT-116 = test system: HCT-116
# HOP-92 = test system: HOP-92
# SK-MEL-5 = test system: SK-MEL-5
# SNB-75 = test system: SNB-75
# COLO 205 = test system: COLO 205
# SF-539 = test system: SF-539
# MDA-N = test system: MDA-N
# EKVX = test system: EKVX
# MOLT-4 = test system: MOLT-4
# OVCAR-5 = test system: OVCAR-5
# OVCAR-4 = test system: OVCAR-4
# SK-OV-3 = test system: SK-OV-3
compound,measurement,setting,value
O=C(NCCCCNCCCNC(=O)c1cc(-c2ccccc2)nc2ccccc12)c1cc(-c2ccccc2)nc2ccccc12,GI50,SNB-19,1.76 µM (inactive)
same,GI50,LOX IMVI,1.54 µM (inactive)
same,GI50,SN12C,1.97 µM (inactive)
same,GI50,NCI-H522,1.7 µM (inactive)
same,GI50,Malme-3M,1.78 µM (inactive)
same,GI50,OVCAR-3,1.55 µM (inactive)
same,GI50,SF-295,1.77 µM (inactive)
same,GI50,CAKI-1,1.84 µM (inactive)
same,GI50,SK-MEL-28,1.83 µM (inactive)
same,GI50,SK-MEL-2,1.91 µM (inactive)
same,GI50,M14,2.1 µM (inactive)
same,GI50,T47D,1.87 µM (inactive)
same,GI50,OVCAR-8,1.69 µM (inactive)
same,GI50,NCI-H23,1.98 µM (inactive)
same,GI50,NCI/ADR-RES,2.26 µM (inactive)
same,GI50,PC-3,1.63 µM (inactive)
same,GI50,MDA-MB-435,1.79 µM (inactive)
same,GI50,UO-31,1.7 µM (inactive)
same,GI50,HCT-15,1.82 µM
same,GI50,Hs-578T,1.96 µM (inactive)
same,GI50,HOP-62,1.63 µM (inactive)
same,GI50,TK-10,1.59 µM (inactive)
same,GI50,A498,2.08 µM (inactive)
same,GI50,CCRF-CEM,1.62 µM (inactive)
same,GI50,MCF7,1.64 µM (inactive)
same,GI50,HCC 2998,1.64 µM (inactive)
same,GI50,SR,2.35 µM (inactive)
same,GI50,U-251,1.91 µM (inactive)
same,GI50,UACC-62,2.12 µM (inactive)
same,GI50,NCI-H226,1.78 µM (inactive)
same,GI50,786-0,1.67 µM (inactive)
same,GI50,HL-60,1.71 µM (inactive)
same,GI50,HT-29,1.6 µM (inactive)
same,GI50,ACHN,1.9 µM (inactive)
same,GI50,UACC-257,1.73 µM (inactive)
same,GI50,SW-620,1.71 µM (inactive)
same,GI50,MDA-MB-231,1.85 µM (inactive)
same,GI50,DU-145,1.78 µM (inactive)
same,GI50,K562,1.81 µM (inactive)
same,GI50,RXF 393,2.19 µM (inactive)
same,GI50,IGROV-1,1.55 µM (inactive)
same,GI50,NCI-H460,1.91 µM (inactive)
same,GI50,SF-268,2.03 µM (inactive)
same,GI50,BT-549,9.66 µM (inactive)
same,GI50,RPMI-8226,2.5 µM (inactive)
same,GI50,A549,1.65 µM (inactive)
same,GI50,KM12,1.7 µM (inactive)
same,GI50,HCT-116,1.8 µM (inactive)
same,GI50,HOP-92,1.37 µM (inactive)
same,GI50,SK-MEL-5,1.44 µM (inactive)
same,GI50,SNB-75,1.84 µM (inactive)
same,GI50,COLO 205,1.49 µM (inactive)
same,GI50,SF-539,2.13 µM (inactive)
same,GI50,MDA-N,1.83 µM (inactive)
same,GI50,EKVX,1.99 µM (inactive)
same,GI50,MOLT-4,1.42 µM (inactive)
O=C(CC(=O)N1N=C(N2CCCCC2)CC1c1ccccc1)Nc1ccccc1 (stereo not drawn),GI50,SNB-19,> 100 µM (inactive)
same,GI50,LOX IMVI,> 100 µM (inactive)
same,GI50,SN12C,> 100 µM (inactive)
same,GI50,NCI-H522,> 100 µM (inactive)
same,GI50,Malme-3M,> 100 µM (inactive)
same,GI50,OVCAR-3,> 100 µM (inactive)
same,GI50,SF-295,> 100 µM (inactive)
same,GI50,CAKI-1,> 100 µM (inactive)
same,GI50,SK-MEL-28,> 100 µM (inactive)
same,GI50,SK-MEL-2,> 100 µM (inactive)
same,GI50,M14,> 100 µM (inactive)
same,GI50,T47D,> 100 µM (inactive)
same,GI50,OVCAR-8,> 100 µM (inactive)
same,GI50,NCI-H23,> 100 µM (inactive)
same,GI50,NCI/ADR-RES,> 100 µM (inactive)
same,GI50,PC-3,> 100 µM (inactive)
same,GI50,MDA-MB-435,> 100 µM (inactive)
same,GI50,UO-31,> 100 µM (inactive)
same,GI50,HCT-15,> 100 µM
same,GI50,Hs-578T,> 100 µM (inactive)
same,GI50,HOP-62,> 100 µM (inactive)
same,GI50,TK-10,> 100 µM (inactive)
same,GI50,A498,> 100 µM (inactive)
same,GI50,CCRF-CEM,> 100 µM (inactive)
same,GI50,MCF7,> 100 µM (inactive)
same,GI50,HCC 2998,> 100 µM (inactive)
same,GI50,SR,> 100 µM (inactive)
same,GI50,U-251,> 100 µM (inactive)
same,GI50,OVCAR-5,> 100 µM (inactive)
same,GI50,UACC-62,> 100 µM (inactive)
same,GI50,NCI-H226,> 100 µM (inactive)
same,GI50,786-0,> 100 µM (inactive)
same,GI50,HL-60,> 100 µM (inactive)
same,GI50,HT-29,> 100 µM (inactive)
same,GI50,ACHN,> 100 µM (inactive)
same,GI50,UACC-257,> 100 µM (inactive)
same,GI50,SW-620,> 100 µM (inactive)
same,GI50,MDA-MB-231,> 100 µM (inactive)
same,GI50,DU-145,> 100 µM (inactive)
same,GI50,RXF 393,> 100 µM (inactive)
same,GI50,IGROV-1,> 100 µM (inactive)
same,GI50,NCI-H460,> 100 µM (inactive)
same,GI50,SF-268,> 100 µM (inactive)
same,GI50,BT-549,> 100 µM (inactive)
same,GI50,A549,> 100 µM (inactive)
same,GI50,KM12,> 100 µM (inactive)
same,GI50,HCT-116,> 100 µM (inactive)
same,GI50,HOP-92,91 µM (inactive)
same,GI50,SK-MEL-5,> 100 µM (inactive)
same,GI50,SNB-75,> 100 µM (inactive)
same,GI50,COLO 205,> 100 µM (inactive)
same,GI50,SF-539,> 100 µM (inactive)
same,GI50,MDA-N,> 100 µM (inactive)
same,GI50,EKVX,> 100 µM (inactive)
same,GI50,OVCAR-4,> 100 µM (inactive)
same,GI50,MOLT-4,> 100 µM (inactive)
Cc1cc(-c2ccc(C(=O)C(c3ccccc3)(c3ccccc3)c3ccccc3)[nH]2)on1,GI50,SNB-19,19 µM (inactive)
same,GI50,LOX IMVI,19.5 µM (inactive)
same,GI50,SN12C,19.1 µM (inactive)
same,GI50,Malme-3M,31.4 µM (inactive)
same,GI50,OVCAR-3,22.1 µM (inactive)
same,GI50,SF-295,14.2 µM (inactive)
same,GI50,CAKI-1,33.1 µM (inactive)
same,GI50,SK-MEL-28,17.6 µM (inactive)
same,GI50,SK-MEL-2,14.6 µM (inactive)
same,GI50,M14,22.8 µM (inactive)
same,GI50,T47D,37.8 µM (inactive)
same,GI50,OVCAR-8,17.5 µM (inactive)
same,GI50,NCI-H23,15 µM (inactive)
same,GI50,NCI/ADR-RES,15.8 µM (inactive)
same,GI50,PC-3,15.2 µM (inactive)
same,GI50,MDA-MB-435,20.1 µM (inactive)
same,GI50,UO-31,15.2 µM (inactive)
same,GI50,HCT-15,17.5 µM
same,GI50,Hs-578T,19.2 µM (inactive)
same,GI50,HOP-62,17.1 µM (inactive)
same,GI50,A498,37.1 µM (inactive)
same,GI50,CCRF-CEM,15.5 µM (inactive)
same,GI50,MCF7,18.2 µM (inactive)
same,GI50,HCC 2998,11.2 µM (inactive)
same,GI50,SR,2.17 µM (inactive)
same,GI50,U-251,12.9 µM (inactive)
same,GI50,OVCAR-5,23.8 µM (inactive)
same,GI50,UACC-62,16.1 µM (inactive)
same,GI50,NCI-H226,16.9 µM (inactive)
same,GI50,786-0,18.4 µM (inactive)
same,GI50,HL-60,3.56 µM (inactive)
same,GI50,HT-29,11.4 µM (inactive)
same,GI50,UACC-257,32 µM (inactive)
same,GI50,SW-620,19.8 µM (inactive)
same,GI50,MDA-MB-231,19.7 µM (inactive)
same,GI50,DU-145,14.2 µM (inactive)
same,GI50,K562,32 µM (inactive)
same,GI50,RXF 393,2.2 µM (inactive)
same,GI50,IGROV-1,16.9 µM (inactive)
same,GI50,NCI-H460,7.21 µM (inactive)
same,GI50,SF-268,18.7 µM (inactive)
same,GI50,BT-549,18.7 µM (inactive)
same,GI50,RPMI-8226,14.4 µM (inactive)
same,GI50,A549,12 µM (inactive)
same,GI50,KM12,15.6 µM (inactive)
same,GI50,HCT-116,12.5 µM (inactive)
same,GI50,HOP-92,16.1 µM (inactive)
same,GI50,SK-MEL-5,12.7 µM (inactive)
same,GI50,SNB-75,20.4 µM (inactive)
same,GI50,COLO 205,15.9 µM (inactive)
same,GI50,SF-539,29.7 µM (inactive)
same,GI50,MDA-N,16.6 µM (inactive)
same,GI50,EKVX,13.2 µM (inactive)
same,GI50,SK-OV-3,32.1 µM (inactive)
same,GI50,OVCAR-4,32.3 µM (inactive)
same,GI50,MOLT-4,21.8 µM (inactive)
